Measurements from ChEMBL document CHEMBL1201862, “PubChem BioAssay data set” (2004).
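Protocol summary: plate cells (96-well), add compound at 5 concentrations, incubate 48 h, interpolate endpoints linearly. Here, GI50 denotes the concentration required for 50% inhibition of growth.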 Calls of active or inactive are those of the source. No stated cut-off is given here; in the data, active = GI50 up to about 1.1 µM and inactive = higher.

Assays:
Assay in all cases: NCI tumour cell line growth inhibition, 48 h
HCC 2998 = tested on: HCC 2998
LXFL 529 = tested on: LXFL 529
SF-295 = tested on: SF-295
KM12 = tested on: KM12
K562 = tested on: K562
NCI-H226 = tested on: NCI-H226
DLD-1 = tested on: DLD-1
NCI-H23 = tested on: NCI-H23
SNB-78 = tested on: SNB-78
SNB-75 = tested on: SNB-75
U-251 = tested on: U-251
HOP-62 = tested on: HOP-62
HCT-116 = tested on: HCT-116
HT-29 = tested on: HT-29
RPMI-8226 = tested on: RPMI-8226
SR = tested on: SR
NCI-H460 = tested on: NCI-H460
786-0 = tested on: 786-0
MOLT-4 = tested on: MOLT-4
A549 = tested on: A549
SK-MEL-2 = tested on: SK-MEL-2
SN12C = tested on: SN12C
HL-60 = tested on: HL-60
IGROV-1 = tested on: IGROV-1
DMS-273 = tested on: DMS-273
RXF 631 = tested on: RXF 631
OVCAR-4 = tested on: OVCAR-4
CAKI-1 = tested on: CAKI-1
COLO 205 = tested on: COLO 205
UACC-62 = tested on: UACC-62
A498 = tested on: A498
SK-MEL-28 = tested on: SK-MEL-28
HCT-15 = tested on: HCT-15
SF-268 = tested on: SF-268
LOX IMVI = tested on: LOX IMVI
CCRF-CEM = tested on: CCRF-CEM
M14 = tested on: M14
OVCAR-3 = tested on: OVCAR-3
ACHN = tested on: ACHN
SNB-19 = tested on: SNB-19
RXF 393 = tested on: RXF 393
OVCAR-8 = tested on: OVCAR-8
DMS-114 = tested on: DMS-114
NCI-H522 = tested on: NCI-H522
TK-10 = tested on: TK-10
OVCAR-5 = tested on: OVCAR-5
KM-20L2 = tested on: KM-20L2
UACC-257 = tested on: UACC-257
SF-539 = tested on: SF-539
SW-620 = tested on: SW-620
UO-31 = tested on: UO-31
EKVX = tested on: EKVX
Malme-3M = tested on: Malme-3M
HOP-18 = tested on: HOP-18
M19-MEL = tested on: M19-MEL
SK-MEL-5 = tested on: SK-MEL-5
HOP-92 = tested on: HOP-92
SK-OV-3 = tested on: SK-OV-3

Measured: GI50

COc1ccc2c3c([nH]c2c1[N+](=O)[O-])C(C)=NCC3
> 100 µM: HCT-15
inactive: HCC 2998 > 100 µM | LXFL 529 > 100 µM | SF-295 72.8 µM | KM12 89.3 µM | K562 62.7 µM | NCI-H226 51.8 µM | DLD-1 99.1 µM | NCI-H23 > 10 µM | SNB-78 > 100 µM | SNB-75 > 100 µM | U-251 > 100 µM | HOP-62 > 100 µM | HCT-116 30.2 µM | HT-29 56.8 µM | RPMI-8226 39.7 µM | SR 40.4 µM | NCI-H460 34.9 µM | 786-0 > 100 µM | MOLT-4 30.8 µM | A549 77.4 µM | SK-MEL-2 > 100 µM | SN12C 80.7 µM | HL-60 > 100 µM | IGROV-1 20.9 µM | DMS-273 41.7 µM | RXF 631 > 100 µM | OVCAR-4 > 100 µM | CAKI-1 47.1 µM | COLO 205 15.2 µM | UACC-62 19.5 µM | A498 18.8 µM | SK-MEL-28 > 100 µM | SF-268 20 µM | LOX IMVI 50.9 µM | CCRF-CEM 93.5 µM | M14 > 100 µM | OVCAR-3 > 100 µM | ACHN 52.6 µM | SNB-19 > 100 µM | RXF 393 > 100 µM | OVCAR-8 62.7 µM | DMS-114 > 100 µM | NCI-H522 > 100 µM | TK-10 > 100 µM | OVCAR-5 61 µM | KM-20L2 69.3 µM | UACC-257 > 100 µM | SF-539 65.6 µM | SW-620 53.1 µM | UO-31 98.4 µM | EKVX > 100 µM

COc1ccc(C(C#N)Cc2cc(OC)c(OC)c(OC)c2)cc1 (stereo not drawn)
17.8 µM: HCT-15
inactive: LXFL 529 41.8 µM | SF-295 10.3 µM | KM12 24 µM | K562 4.99 µM | NCI-H226 94.2 µM | DLD-1 45.7 µM | SNB-78 39.8 µM | Malme-3M 43.1 µM | U-251 29.6 µM | HOP-62 22.3 µM | HCT-116 39.9 µM | HT-29 33 µM | HOP-18 > 100 µM | RPMI-8226 23.4 µM | NCI-H460 12.1 µM | 786-0 44.1 µM | MOLT-4 28.2 µM | A549 30.6 µM | SN12C 41.3 µM | HL-60 15 µM | IGROV-1 31.9 µM | DMS-273 7.16 µM | RXF 631 35.6 µM | OVCAR-4 39.3 µM | CAKI-1 29.3 µM | COLO 205 19.2 µM | UACC-62 27.8 µM | A498 17.4 µM | SK-MEL-28 54.8 µM | SF-268 49.2 µM | LOX IMVI 28.6 µM | CCRF-CEM 28.8 µM | M14 33.4 µM | OVCAR-3 31.4 µM | M19-MEL 29.9 µM | ACHN 45.8 µM | SNB-19 54.2 µM | SK-MEL-5 17.6 µM | RXF 393 16.4 µM | OVCAR-8 37 µM | DMS-114 17.4 µM | NCI-H522 22.4 µM | TK-10 37.6 µM | OVCAR-5 64.7 µM | UACC-257 50.5 µM | SF-539 23.4 µM | SW-620 15.7 µM | UO-31 30.8 µM | HOP-92 21.7 µM | EKVX 40.7 µM

COc1cc2ccc3c4ccccc4cnc3c2cc1OC
inactive: HCC 2998 > 100 µM | LXFL 529 > 100 µM | SF-295 > 100 µM | KM12 > 100 µM | K562 > 100 µM | NCI-H226 > 100 µM | DLD-1 > 100 µM | NCI-H23 > 100 µM | SNB-78 > 100 µM | Malme-3M > 100 µM | SNB-75 > 100 µM | U-251 > 100 µM | HOP-62 > 100 µM | HCT-116 > 100 µM | HT-29 > 100 µM | SK-OV-3 > 100 µM | HOP-18 > 100 µM | RPMI-8226 > 100 µM | SR > 100 µM | NCI-H460 > 100 µM | 786-0 > 100 µM | MOLT-4 93.1 µM | A549 > 100 µM | SK-MEL-2 > 100 µM | SN12C > 100 µM | HL-60 > 100 µM | IGROV-1 > 100 µM | RXF 631 > 100 µM | OVCAR-4 > 100 µM | CAKI-1 > 100 µM | COLO 205 > 100 µM | UACC-62 > 100 µM | SK-MEL-28 > 100 µM | SF-268 > 100 µM | LOX IMVI > 100 µM | CCRF-CEM > 100 µM | M14 > 100 µM | OVCAR-3 > 100 µM | M19-MEL > 100 µM | ACHN > 100 µM | SNB-19 > 100 µM | SK-MEL-5 > 100 µM | RXF 393 > 100 µM | OVCAR-8 > 100 µM | NCI-H522 > 100 µM | TK-10 > 100 µM | OVCAR-5 > 100 µM | KM-20L2 > 100 µM | UACC-257 > 100 µM | SF-539 > 100 µM | SW-620 > 100 µM | UO-31 > 100 µM | HOP-92 > 100 µM | EKVX > 100 µM
> 100 µM: HCT-15
